Measured values reported in ChEMBL document CHEMBL4251699, “In Search of the Optimal Macrocyclization Site for Neurotensin” (ACS Med Chem Lett, 2018).
Numbered stars: 1 amine (or outer) side, 2 acyl side, 3 side chain; on linkers, the order of the positions; unused ones are H or OH. Bridge positions count the residues as written; N and C are the ends. Square brackets hold non-standard residues; d marks the D form. Peptide text beside a SMILES is read from it. * marks the point of attachment. X1 = O=C([C@H](Cc1ccc(O)c(CC=[*:3])c1)N[*:1])[*:2]; X3 = C=CCc1cc(C[C@H](N[*:1])C(=O)[*:2])ccc1O; Ser(allyl) = C=CCOC[C@H](N)C(=O)O; AllylGly = C=CC[C@H](N)C(=O)O; X2 = C=CCCCCCCC(=O)*

Assays:
[1] = target: T1, Neurotensin receptor type 1 (Homo sapiens, UniProt P30989); assay: Displacement of 125I-[Tyr3]-NT from human NTS1 receptor expressed in CHO-K1 cell membranes after 60 mins by gamma-counting method
[2] = Half life in rat plasma by UPLC-MS analysis; assay type: ADME, cell-free
[3] = target: T1, Neurotensin receptor type 1; assay: Agonist activity at GFP10-tagged human NTS1 expressed in CHO-K1 cells assessed as Rluc2-fused beta-arrestin2 recruitment after 20 mins by BRET assay; assay type: functional, cell-based

T1 sequence (P30989 whole entry): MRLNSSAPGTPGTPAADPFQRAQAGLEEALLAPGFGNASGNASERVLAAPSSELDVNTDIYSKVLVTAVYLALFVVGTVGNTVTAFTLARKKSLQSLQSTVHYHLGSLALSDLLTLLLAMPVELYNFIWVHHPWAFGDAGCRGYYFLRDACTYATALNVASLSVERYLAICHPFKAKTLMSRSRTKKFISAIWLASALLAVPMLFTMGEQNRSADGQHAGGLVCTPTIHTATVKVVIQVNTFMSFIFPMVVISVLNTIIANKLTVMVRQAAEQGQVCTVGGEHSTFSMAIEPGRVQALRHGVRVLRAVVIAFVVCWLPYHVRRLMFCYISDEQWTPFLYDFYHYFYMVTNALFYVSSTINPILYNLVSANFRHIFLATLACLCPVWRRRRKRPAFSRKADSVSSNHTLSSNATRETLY

IC50 [1] | half-life [2] | EC50 [3] | SMILES
1.4 µM |  |  | C=CCCCCCCC(=O)N[C@@H](CCCCN)C(=O)N1CCC[C@H]1C(=O)N[C@@H](Cc1ccc(O)c(CC=C)c1)C(=O)N[C@H](C(=O)N[C@@H](CC(C)C)C(=O)O)[C@@H](C)CC (X2-KP[X3]IL-OH)
10 µM |  |  | CC(C)C[C@H](NC(=O)[C@@H]1CC=CC[C@@H](N)C(=O)N[C@@H](CCCCN)C(=O)N2CCC[C@H]2C(=O)N[C@@H](Cc2ccc(O)cc2)C(=O)N1)C(=O)O
> 100 µM |  |  | CC[C@H](C)[C@@H]1NC(=O)[C@H](Cc2ccc(O)cc2)NC(=O)[C@@H]2CCCN2C(=O)[C@@H](NC(=O)[C@@H](N)CCCCN)CC=CC[C@@H](C(=O)O)NC1=O (H-K[AllylGly]PYI[AllylGly]-OH; staple 2-6)
0.4 µM | 12 h | 1.37 µM | CC[C@H](C)[C@H](NC(=O)[C@@H]1Cc2ccc(O)c(c2)CC=CCCCCCCC(=O)N[C@@H](CCCCN)C(=O)N2CCC[C@H]2C(=O)N1)C(=O)N[C@@H](CC(C)C)C(=O)O
 | 0.05 h |  | CC[C@H](C)[C@H](NC(=O)[C@H](Cc1ccc(O)cc1)NC(=O)[C@@H]1CCCN1C(=O)[C@H](CCCNC(=N)N)NC(=O)[C@@H](N)CCCNC(=N)N)C(=O)N[C@@H](CC(C)C)C(=O)O
1.7 µM |  |  | C=CC[C@H](NC(=O)[C@H](Cc1ccc(O)cc1)NC(=O)[C@@H]1CCCN1C(=O)[C@H](CCCCN)NC(=O)[C@@H](N)CC=C)C(=O)N[C@@H](CC(C)C)C(=O)O (H-[AllylGly]KPY[AllylGly]L-OH)
17 µM |  |  | CC(C)C[C@H](NC(=O)[C@@H]1CC=CC[C@H](N)C(=O)N[C@@H](CCCCN)C(=O)N2CCC[C@H]2C(=O)N[C@@H](Cc2ccc(O)cc2)C(=O)N1)C(=O)O
14.3 µM |  |  | CC(C)C[C@H](NC(=O)[C@H]1CC=CC[C@H](N)C(=O)N[C@@H](CCCCN)C(=O)N2CCC[C@H]2C(=O)N[C@@H](Cc2ccc(O)cc2)C(=O)N1)C(=O)O
7.6 µM |  |  | CC[C@H](C)[C@H](NC(=O)[C@@H]1Cc2ccc(O)c(c2)CC=CC[C@H](NC(=O)[C@@H](N)CCCCN)C(=O)N2CCC[C@H]2C(=O)N1)C(=O)N[C@@H](CC(C)C)C(=O)O (H-K[AllylGly]P[X1]IL-OH; staple 2-4)
29.8 µM |  |  | CC(C)C[C@H](NC(=O)[C@@H]1COCC=CCc2cc(ccc2O)C[C@H](NC(=O)[C@@H]2CCCN2C(=O)[C@@H](N)CCCCN)C(=O)N1)C(=O)O
10.3 µM |  |  | CC[C@H](C)[C@H](NC(=O)[C@@H]1Cc2ccc(O)c(c2)CC=CCOC[C@H](NC(=O)[C@@H](N)CCCCN)C(=O)N2CCC[C@H]2C(=O)N1)C(=O)N[C@@H](CC(C)C)C(=O)O (H-K[Ser(allyl)]P[X1]IL-OH; staple 2-4)
> 100 µM |  |  | CC(C)C[C@H](NC(=O)[C@@H]1COCC=CCOC[C@H](N)C(=O)N[C@@H](CCCCN)C(=O)N2CCC[C@H]2C(=O)N[C@@H](Cc2ccc(O)cc2)C(=O)N1)C(=O)O (H-[Ser(allyl)]KPY[Ser(allyl)]L-OH; staple 1-5)
19.8 µM |  |  | CC(C)C[C@H](NC(=O)[C@H]1CC=CC[C@@H](N)C(=O)N[C@@H](CCCCN)C(=O)N2CCC[C@H]2C(=O)N[C@@H](Cc2ccc(O)cc2)C(=O)N1)C(=O)O
